Test system: NAD metabolome
Assay: NR-SAFE: LC-MS metabolomics of whole blood and urine
Format: in vivo, human
Protocol: Sample analysis was carried out by MS-Omics (Vedbok, Denmark) as follows: Polar metabolite profiling of whole blood and urine was performed using a Thermo Scientific Vanquish LC coupled to Thermo Q Exactive HF MS. An electrospray ionization interface was used as ionization source. Analysis was performed in negative and positive ionization mode. The UPLC was performed using a slightly modified version of the protocol described by Hsiao et al. 2018^14. Peak areas were extracted using Compound Discoverer 3.3 (Thermo Scientific). 14 Hsiao, J. J., Potter, O. G., Chu, T. W. & Yin, H. Improved LC/MS Methods for the Analysis of Metal-Sensitive Analytes Using Medronic Acid as a Mobile Phase Additive. Anal Chem 90, 9457-9464 (2018).
Semi-polar metabolite analysis of whole blood was carried out using a Thermo Scientific Vanquish LC coupled to Orbitrap Exploris 240 MS, Thermo Fisher Scientific. An electrospray ionization interface was used as ionization source. Analysis was performed in positive and negative ionization mode under polarity switching. The UPLC was performed using a slightly modified version of the protocol described by Doneanu et al., 2011^15. Peak areas were extracted using Compound Discoverer 3.3 (Thermo Scientific). 15 Doneanu, C. E. UPLC/MS Monitoring of Water-Soluble Vitamin Bs in Cell Culture Media in Minutes (Application note). https://www.waters.com/waters/library.htm?locale=en US&lid=134636355 (2011).
Identification of compounds for both methods was performed at four levels; Level 1: identification by retention times (compared against in-house authentic standards), accurate mass (with an accepted deviation of 3 ppm), and MS/MS spectra; Level 2a: identification by retention times (compared against in-house authentic standards), accurate mass (with an accepted deviation of 3 ppm). Level 2b: identification by accurate mass (with an accepted deviation of 3 ppm), and MS/MS spectra, Level 3: identification by accurate mass alone (with an accepted deviation of 3 ppm).

[1] = LC-MS, V1 to V7, 3000 mg NR daily
[2] = LC-MS, V1 to V7, NR group, 3000 mg NR daily

NC(=O)c1ccc[n+]([C@@H]2O[C@H](CO)[C@@H](O)[C@H]2O)c1 [NR, nicotinamide riboside] was tested. Which “urine NAD-related metabolites (NAR, Nam, Me-Nam, Me-2-PY, Nam N-oxide)” value [1] did it give?
Its value is “increase in several NAD-related metabolites”.

And the “whole blood ADP-ribose (ADPR)” value [1]?
Its value is “increase in NAD-derived signaling molecules such as ADP-ribose (ADPR)”.

What about the “whole blood ATP, GTP, ADP, AMP, adenosine and GDP” value [1] of the same molecule?
Its value is “unchanged”.

What about the “whole blood Nam, Nam N-oxide, Me-Nam, Me-2-PY” value [1] of the same molecule?
The value was “increased as well”.

What about the “whole blood nicotinamide mononucleotide (NMN)” value [1] of the same molecule?
Its value is “elevated levels”.

And the “whole blood nicotinic acid adenine dinucleotide (NAAD)” value [1]?
The value was “elevated”.

What about the “NR itself in urine” value [2] of the same molecule?
Its value is “did not change significantly”.

And the “NR itself in whole blood” value [2]?
The value was “did not increase”.

What about the “whole blood HCy, SAM, SAH, SAM/SAH ratio, methionine” value (LC-MS, V1 vs V7, 3000 mg NR daily) of the same molecule?
The value was “did not detect a change”.

What about the “depletion of the methyl-group pool” value (NR 3000 mg for 4 weeks) of the same molecule?
Its value is “does not cause depletion of the methyl-group pool”.

What about the “whole blood NAD^+ and NADP^+ levels” value (targeted LC-MS, V1 to V7, 3000 mg NR daily) of the same molecule?
The value was “significant increase in whole blood NAD^+ and NADP^+ levels”.

What about the “whole blood homocysteine (HCy)” value (targeted metabolomics, V1 vs V7, 3000 mg NR daily) of the same molecule?
The value was “did not show any HCy elevation”.

What about the “whole blood methionine levels” value (untargeted metabolomics, 3000 mg NR daily) of the same molecule?
The value was “unaffected”.

What about the whole blood betaine (untargeted metabolomics, NR group, 3000 mg NR daily) of the same molecule?
The whole blood betaine was “decreased slightly”.

— patent US20250275995A1, “NICOTINAMIDE RIBOSIDE DOSAGE REGIMEN FOR TREATING PARKINSON'S DISEASE” (VESTLANDETS INNOVASJONSSELSKAP AS (VIS), priority 2022, published 2025)
